Measurements taken from PubChem BioAssay AID214 (DTP/NCI, 2004).
“And” between values parts separate entries of the source, which are not always exact repeats. Equal values may be shown once. Results filed as inconclusive are left out.

Tested on: B6C3F1 mice, colon carcinoma 38 s.c., T/C
Assay: NCI In Vivo Anticancer Drug Screen. Data for tumor model Colon Carcinoma 38 (subcutaneous) in B6C3F1 mice
Conditions: endpoint: median tumor weight (est.), higher = larger tumour
Procedure: The antitumor activity of compounds was measured in mice bearing transplantable tumors. Survival or tumor size were measured and the results are expressed as the measurement made in the treated group (T) divided by the measurement made in the vehicle treated control group (C). The tumor model used in this assay is Colon Carcinoma 38 (subcutaneous) in B6C3F1 mice

[1] = dose: 25.0 mg/kg/injection, schedule: Q07DX002 (ip), vehicle: saline with Tween-80
[2] = dose: 50.0 mg/kg/injection, schedule: Q07DX002 (ip), vehicle: saline with Tween-80
[3] = dose: 100.0 mg/kg/injection, schedule: Q07DX002 (ip), vehicle: saline with Tween-80
[4] = dose: 12.5 mg/kg/injection, schedule: Q07DX002 (ip), vehicle: Klucel (hydroxypropylcellulose) (HPC)
[5] = dose: 100.0 mg/kg/injection, schedule: Q07DX002 (ip), vehicle: Klucel (hydroxypropylcellulose) (HPC)

O=C(O)Cc1cccc2c(=O)cc(Cc3ccccc3)oc12
T/C (dose: 100.0 mg/kg/injection, schedule: Q07DX002 (ip), vehicle: saline): 60 % of control
T/C (dose: 200.0 mg/kg/injection, schedule: Q07DX002 (ip), vehicle: saline): 111 % of control
T/C (dose: 400.0 mg/kg/injection, schedule: Q07DX002 (ip), vehicle: saline): 122 % of control

S=P(N1CC1)(N1CC1)N1CC1
T/C (dose: 3.0 mg/kg/injection, schedule: Q07DX003 (ip), vehicle: saline): 58 % of control
T/C (dose: 6.0 mg/kg/injection, schedule: Q07DX003 (ip), vehicle: saline): 57 % of control
T/C (dose: 12.0 mg/kg/injection, schedule: Q07DX003 (ip), vehicle: saline): 23 % of control

N[C@@H](Cc1ccc(N(CCCl)CCCl)cc1)C(=O)O
T/C (dose: 1.2 mg/kg/injection, schedule: Q01DX006 (ip), vehicle: saline): 35 % of control
T/C (dose: 1.8 mg/kg/injection, schedule: Q01DX006 (ip), vehicle: saline): 62 % of control
T/C (dose: 2.7 mg/kg/injection, schedule: Q01DX006 (ip), vehicle: saline): 38 % of control
T/C (dose: 4.0 mg/kg/injection, schedule: Q01DX006 (ip), vehicle: saline): 50 % of control

O=C1N[C@H]2[C@H](O)[C@H](O)[C@@H](O)[C@H](O)[C@@H]2c2cc3c(c(O)c21)OCO3
T/C (dose: 0.88 mg/kg/injection, schedule: Q01DX008 (ip), vehicle: saline + alcohol): 113 % of control
T/C (dose: 1.75 mg/kg/injection, schedule: Q01DX008 (ip), vehicle: saline + alcohol): 105 % of control
T/C (dose: 3.5 mg/kg/injection, schedule: Q01DX008 (ip), vehicle: saline + alcohol): 88 % of control

CCC(NC(N)=O)C(CC)NC(N)=O (stereo not given)
T/C [1]: 83 % of control
T/C [2]: 88 % of control
T/C [3]: 81 % of control

O=C(O)CSc1c(Cl)c(=O)oc2ccc(Cl)cc12
T/C [4]: 73 % of control
T/C (dose: 25.0 mg/kg/injection, schedule: Q07DX002 (ip), vehicle: Klucel (hydroxypropylcellulose) (HPC)): 58 % of control
T/C (dose: 50.0 mg/kg/injection, schedule: Q07DX002 (ip), vehicle: Klucel (hydroxypropylcellulose) (HPC)): 57 % of control
T/C [5]: 86 % of control
T/C (dose: 200.0 mg/kg/injection, schedule: Q07DX002 (ip), vehicle: Klucel (hydroxypropylcellulose) (HPC)): 67 % of control

O=C1[C@H]2CCC[C@H]2[C@H]2CCC[C@@H]12
T/C [1]: 106 % of control and 109 % of control
T/C [2]: 95 % of control and 107 % of control
T/C [3]: 41 % of control
T/C (dose: 200.0 mg/kg/injection, schedule: Q07DX002 (ip), vehicle: saline with Tween-80): 100 % of control and 116 % of control
T/C (dose: 400.0 mg/kg/injection, schedule: Q07DX002 (ip), vehicle: saline with Tween-80): 104 % of control

Cc1cc(NS(=O)(=O)c2ccc(N=Nc3cc(N=Nc4ccc(S(=O)(=O)Nc5cc(C)nc(C)n5)cc4)c4c(NC(=O)C(Cl)Cl)cccc4c3OC(=O)C(Cl)Cl)cc2)nc(C)n1 (tested in a mixture with another compound)
T/C (dose: 25.0 mg/kg/injection, schedule: Q07DX002 (ip), vehicle: suspension in saline): 111 % of control
T/C (dose: 400.0 mg/kg/injection, schedule: Q07DX002 (ip), vehicle: suspension in saline): 114 % of control

NC(CCl)=NCC12CC3CC(CC(C3)C1)C2
T/C [4]: 110 % of control
T/C [5]: 94 % of control and 108 % of control
